Here are results for eleven compounds from ChEMBL document CHEMBL4043139, “Fluoro and pentafluorothio analogs of the antitumoral curcuminoid EF24 with superior antiangiogenic and vascular-disruptive effects” (Bioorg Med Chem, 2017).

SMILES strings stand for the structures.

One assay concerns 518A2. The assay can be described thus: Cytotoxicity against human 518A2 cells after 72 hrs by MTT assay. It is filed as functional, cell-based. The note with it: for IC50: 518A2, 72 h. For orientation: Tetrazolium dyes change colour on reduction, which living cells bring about.
Another assay concerns HT-29. The assay can be described thus: Cytotoxicity against human HT-29 cells after 72 hrs by MTT assay. The class given is functional, cell-based. The note with it: for IC50: HT-29, 72 h.
Another assay concerns HCT-116. The assay can be described thus: Cytotoxicity against human HCT116 cells after 72 hrs by MTT assay. The class given is functional, cell-based. The note with it: for IC50: HCT-116, 72 h.
A further assay has as its system DLD-1. The assay can be described thus: Cytotoxicity against human DLD1 cells after 72 hrs by MTT assay. It is filed as functional, cell-based. The note with it: for IC50: DLD-1, 72 h.
A further assay concerns PANC-1. The assay can be described thus: Cytotoxicity against human PANC1 cells after 72 hrs by MTT assay. The class given is functional, cell-based. The note with it: for IC50: PANC-1, 72 h.
Assay [1] can be described thus: (§1) Cytotoxicity against human KB-V1/Vbl cells after 72 hrs by MTT assay. The class given is functional, cell-based.
For the next assay, the system named is KB-V1/Vbl. Described as §1. The class given is functional, cell-based.
Assay [2] can be described thus: (§2) Cytotoxicity against human MCF7/Topo cells after 72 hrs by MTT assay. It is filed as functional, cell-based.
For another assay, the system named is MCF7/Topo. The description is as §2. It is filed as functional, cell-based.
Assay [3] is described as follows: (§3) Cytotoxicity against human U87 cells after 72 hrs by MTT assay. The class given is functional, cell-based, U-87MG ATCC. The note with it: U-87 MG.
In another assay the test system is U-87MG ATCC. The description is as §3. The class given is functional, cell-based.

In the case of `CN1C/C(=C\c2ccccc2F)C(=O)/C(=C/c2ccccc2F)C1`, the Activity result in the assay on 518A2, with HT-29, in the assay on HCT-116, in the assay on DLD-1, with PANC-1 and with KB-V1/Vbl was “Dose-dependent effect” each time. The Activity result in the assay on MCF7/Topo is “Dose-dependent effect”. The IC50 in the assay on 518A2 was determined as 1800 nM; with HT-29, 2200 nM; with HCT-116 it was 1300 nM; in the assay with DLD-1 it was 810 nM; in the assay with PANC-1, 2200 nM; in assay [1], 1800 nM. This compound also had an IC50 in assay [2] of 2300 nM.
For `CCN1C/C(=C\c2cc(F)cc(F)c2)C(=O)/C(=C/c2cc(F)cc(F)c2)C1`, the Activity entry in the assay on 518A2, in the assay with HT-29, with HCT-116, in the assay on DLD-1, in the assay on PANC-1 and in the assay on KB-V1/Vbl was “Dose-dependent effect” throughout. For the same compound, the Activity result in the assay with MCF7/Topo was “Dose-dependent effect”. Besides, the IC50 in the assay on 518A2 came to 3300 nM; in the assay on HT-29, 2100 nM; with HCT-116, 550 nM; with DLD-1, 640 nM; in the assay on PANC-1, 1100 nM; in assay [1], 2700 nM. Besides, inhibition in assay [2] was half-maximal at 1000 nM (IC50).
Take `O=C1/C(=C/c2ccc(F)c(F)c2)CSC/C1=C\c1ccc(F)c(F)c1`: the Activity entry with 518A2, with HT-29, in the assay on HCT-116, in the assay on DLD-1, in the assay with PANC-1 and in the assay with KB-V1/Vbl was “Dose-dependent effect” in each case. Also, the Activity entry in the assay on MCF7/Topo and in the assay with U-87MG ATCC was “Dose-dependent effect” each time. Besides, the IC50 in the assay on 518A2 turned out to be 1500 nM; in the assay with HT-29 it was 1300 nM; in the assay on HCT-116, 2000 nM; in the assay on DLD-1, 1800 nM; in the assay with PANC-1, 2100 nM; in assay [1] it was 760 nM. Besides, the IC50 in assay [2] turned out to be 1600 nM; in assay [3] it was 2300 nM.
`CN1C/C(=C\c2ccc(F)c(F)c2)C(=O)/C(=C/c2ccc(F)c(F)c2)C1`: the Activity entry with 518A2, in the assay with HT-29, in the assay with HCT-116, with DLD-1, with PANC-1 and with KB-V1/Vbl was “Dose-dependent effect” in each case. Besides, in the assay on MCF7/Topo, the Activity entry is “Dose-dependent effect”. In addition, the IC50 in the assay with 518A2 amounted to 1500 nM; in the assay with HT-29, 1500 nM; with HCT-116, 510 nM; in the assay with DLD-1 it was 470 nM; in the assay on PANC-1, 1500 nM; in assay [1], 990 nM. In [2], this compound displayed an IC50 of 1300 nM.
For the compound `CCN1C/C(=C\c2cc(F)c(F)cc2F)C(=O)/C(=C/c2cc(F)c(F)cc2F)C1`, the Activity entry with 518A2, in the assay on HT-29, in the assay with HCT-116, with DLD-1, in the assay with PANC-1 and in the assay with KB-V1/Vbl was “Dose-dependent effect” throughout. Further, the Activity result with MCF7/Topo was “Dose-dependent effect”. Moreover, the IC50 in the assay on 518A2 is 1500 nM; in the assay with HT-29 it was 690 nM; in the assay on HCT-116, 510 nM; in the assay on DLD-1, 520 nM; in the assay on PANC-1, 830 nM; in assay [1], 640 nM. In assay [2], this compound had an IC50 of 1100 nM.
Consider `O=C1/C(=C/c2ccc(S(F)(F)(F)(F)F)cc2)CSC/C1=C\c1ccc(S(F)(F)(F)(F)F)cc1`, for which the Activity result with 518A2, in the assay with HT-29, in the assay on HCT-116, in the assay on DLD-1, in the assay with PANC-1 and with KB-V1/Vbl was “Dose-dependent effect” each time. Besides, the Activity result in the assay with MCF7/Topo and with U-87MG ATCC was “Dose-dependent effect” in each case. Also, the IC50 was determined as 850 nM in the assay on 518A2; 980 nM with HT-29; 640 nM in the assay with HCT-116; 750 nM in the assay on DLD-1; 840 nM in the assay with PANC-1; 570 nM in [1]. Besides, the results for the IC50 in [2] and in assay [3] were 760 nM and 2100 nM, respectively.
As to `O=C(/C=C/c1ccc(S(F)(F)(F)(F)F)cc1)/C=C/c1ccc(S(F)(F)(F)(F)F)cc1`, the Activity result in the assay with 518A2, in the assay on HT-29, in the assay on HCT-116, in the assay on DLD-1, in the assay on PANC-1 and in the assay with KB-V1/Vbl was “Dose-dependent effect” each time. For the same compound, the Activity entry in the assay on MCF7/Topo and with U-87MG ATCC was “Dose-dependent effect” throughout. Moreover, the IC50 with 518A2 amounted to 4400 nM; in the assay on HT-29, 1800 nM; in the assay with HCT-116 it was 1000 nM; in the assay with DLD-1, 3200 nM; with PANC-1 it was 3100 nM; in assay [1], 3600 nM. Further, the IC50 in assay [2] came to 3400 nM; in assay [3] it was 8700 nM.
On to `CCN1C/C(=C\c2ccc(F)cc2F)C(=O)/C(=C/c2ccc(F)cc2F)C1`, for which the Activity result in the assay with 518A2, in the assay with HT-29, with HCT-116, with DLD-1, with PANC-1 and in the assay on KB-V1/Vbl was “Dose-dependent effect” throughout. In addition, in the assay with MCF7/Topo, the Activity result was “Dose-dependent effect”. In addition, the IC50 turned out to be 2400 nM in the assay with 518A2; 3100 nM in the assay with HT-29; 2000 nM in the assay on HCT-116; 960 nM in the assay with DLD-1; 2300 nM in the assay on PANC-1; 1200 nM in assay [1]. Moreover, in [2], the IC50 is 1800 nM.
Regarding `CCN1C/C(=C\c2ccccc2F)C(=O)/C(=C/c2ccccc2F)C1`, the Activity result with 518A2, in the assay on HT-29, in the assay on HCT-116, in the assay with DLD-1, in the assay on PANC-1 and in the assay with KB-V1/Vbl was “Dose-dependent effect” in each case. The Activity result in the assay with MCF7/Topo is “Dose-dependent effect”. Moreover, the half-inhibitory concentration (IC50) in the assay on 518A2 came to 1800 nM; in the assay on HT-29, 5200 nM; in the assay with HCT-116, 1800 nM; with DLD-1 it was 930 nM; in the assay with PANC-1, 1700 nM; in [1], 3100 nM. The compound also yielded a half-inhibitory concentration (IC50) in [2] of 2000 nM.
Take `CCN1C/C(=C\c2c(F)cc(F)cc2F)C(=O)/C(=C/c2c(F)cc(F)cc2F)C1`: the Activity entry with 518A2, in the assay with HT-29, in the assay on HCT-116, in the assay with DLD-1, with PANC-1 and with KB-V1/Vbl was “Dose-dependent effect” throughout. In addition, in the assay with MCF7/Topo, the Activity result is “Dose-dependent effect”. Moreover, the IC50 came out at 2000 nM in the assay on 518A2; 2000 nM in the assay with HT-29; 1100 nM in the assay with HCT-116; 1400 nM in the assay on DLD-1; 1300 nM in the assay on PANC-1; 1200 nM in assay [1]. The IC50 in assay [2] is 2100 nM.
Take `O=C1/C(=C/c2ccc(S(F)(F)(F)(F)F)cc2)CCC/C1=C\c1ccc(S(F)(F)(F)(F)F)cc1`: the Activity result in the assay on 518A2, with HT-29, in the assay on HCT-116, in the assay on DLD-1, in the assay with PANC-1 and in the assay on KB-V1/Vbl was “Dose-dependent effect” in each case. The Activity entry with MCF7/Topo and in the assay with U-87MG ATCC was “Dose-dependent effect” each time. Further, the concentration for half-maximal inhibition (IC50) in the assay with 518A2 came to 1800 nM; in the assay on HT-29, 1100 nM; with HCT-116, 710 nM; in the assay on DLD-1 it was 860 nM; in the assay on PANC-1 it was 2000 nM; in assay [1], 1900 nM. The IC50 in assay [2] is 1800 nM; in assay [3], 3200 nM.

One may read the IC50 as the concentration needed to halve the response being measured.
